Experimental data taken from ChEMBL document CHEMBL5634125, “Investigation of novel 5'-amino adenosine derivatives with potential anti-Zika virus activity” (Eur J Med Chem, 2023).
Calls of active or inactive are those of the source. No cut-off for these calls is given here.

Assays:
Zika virus [1] = assay: Antiviral activity against Zika virus infected in golden hamster BHK cells assessed as inhibition of virus induced cytopathic effect incubated for 6 to 8 days by CellTiter-Glo luminescent cell viability assay; format: functional, organism-based
Zika virus [2] = assay: Inhibition of Zika virus NS5 MTase activity at 50 uM by chemiluminescence-based enzymatic assay system relative to control
[3] = Half-life in ICR mouse at 25 mg/kg, po administered as single dose and measured upto 24 hrs by LC-MS/MS analysis; format: ADME, organism-based; conditions: in vivo
[4] = Tmax in ICR mouse at 25 mg/kg, po administered as single dose and measured upto 24 hrs by LC-MS/MS analysis; format: ADME, organism-based; conditions: in vivo
[5] = Cmax in ICR mouse at 25 mg/kg, po administered as single dose and measured upto 24 hrs by LC-MS/MS analysis; format: ADME, organism-based; conditions: in vivo
[6] = AUC (0 to t) in ICR mouse at 25 mg/kg, po administered as single dose and measured upto 24 hrs by LC-MS/MS analysis; format: ADME, organism-based; conditions: in vivo
[7] = MRT in ICR mouse at 25 mg/kg, po administered as single dose and measured upto 24 hrs by LC-MS/MS analysis; format: ADME, organism-based; conditions: in vivo
[8] = Acute toxicity in A129 mouse assessed as animal death at 50 mg/kg, po measured after 2 weeks; format: organism-based; conditions: in vivo, 336 h
[9] = Acute toxicity in A129 mouse assessed as animal death at 100 mg/kg, po measured after 2 weeks; format: organism-based; conditions: in vivo, 336 h
[10] = Acute toxicity in po dosed ICR mouse assessed as lethal dose measured after 2 weeks; format: organism-based; conditions: in vivo
Zika virus [11] = assay: Antiviral activity against Zika virus infected in infected in golden hamster BHK cells assessed as inhibition of viral RNA production at stage III incubated for 24 hrs by qRT-PCR analysis; format: functional, organism-based
Zika virus [12] = assay: Antiviral activity against Zika virus infected in golden hamster BHK cells assessed as inhibition of viral RNA production at stage IV pre-infected with virus for 2 hrs followed by compound addition and measured 24 hrs post infection by qRT-PCR analysis; format: functional, organism-based; conditions: time 22.0 hrs
Zika virus [13] = assay: Antiviral activity against Zika virus infected in golden hamster BHK-21 cells assessed as inhibition of viral replication incubated for 72 hrs by Dual-luciferase reporter assay system; format: functional, organism-based; conditions: BHK-21, 72 h

SMILES: CC(C)N1CCN(C[C@H]2O[C@@H](n3cnc4c(NCc5cccc(Cl)c5)ncnc43)[C@H](O)[C@@H]2O)CC1
- IC50 (Zika virus [1]): > 50 µM

SMILES: Cc1cccc(CNc2ncnc3c2ncn3[C@@H]2O[C@H](CNCc3ccc(C(F)(F)F)cc3)[C@@H](O)[C@H]2O)c1
- IC50 (Zika virus [1]): 5.55 µM

SMILES: O[C@@H]1[C@H](O)[C@@H](CNCc2ccccc2)O[C@H]1n1cnc2c(NCc3cccc(Cl)c3)ncnc21
- IC50 (Zika virus [1]): 4.57 µM

SMILES: O[C@@H]1[C@H](O)[C@@H](CNC2CCCCC2)O[C@H]1n1cnc2c(NCc3cccc(Cl)c3)ncnc21
- IC50 (Zika virus [1]): 5.28 µM

SMILES: O[C@@H]1[C@H](O)[C@@H](CNCc2ccc(C(F)(F)F)cc2)O[C@H]1n1cnc2c(NCC3CCC3)ncnc21
- IC50 (Zika virus [1]): > 50 µM

SMILES: CNc1ncnc2c1ncn2[C@@H]1O[C@H](CNCc2ccc(C(F)(F)F)cc2)[C@@H](O)[C@H]1O
- IC50 (Zika virus [1]): > 50 µM

SMILES: CC1CCCCN1C[C@H]1O[C@@H](n2cnc3c(NCc4cccc(Cl)c4)ncnc32)[C@H](O)[C@@H]1O (some centres undefined)
- IC50 (Zika virus [1]): 5.67 µM

SMILES: CCN(C)c1ncnc2c1ncn2[C@@H]1O[C@H](CNCc2ccc(C(F)(F)F)cc2)[C@@H](O)[C@H]1O
- IC50 (Zika virus [1]): 24.9 µM

SMILES: O[C@@H]1[C@H](O)[C@@H](CNCc2ccc(C(F)(F)F)cc2)O[C@H]1n1cnc2c(NCc3ccc(Cl)cc3)ncnc21
- IC50 (Zika virus [1]): > 50 µM

SMILES: O[C@@H]1[C@H](O)[C@@H](CNCc2ccc(C(F)(F)F)cc2)O[C@H]1n1cnc2c(NCc3cccs3)ncnc21
- IC50 (Zika virus [1]): > 50 µM

SMILES: COc1cccc(CNc2ncnc3c2ncn3[C@@H]2O[C@H](CNCc3ccc(C(F)(F)F)cc3)[C@@H](O)[C@H]2O)c1
- IC50 (Zika virus [1]): 7.5 µM

SMILES: O=C(NC[C@H]1O[C@@H](n2cnc3c(NCc4cccc(Cl)c4)ncnc32)[C@H](O)[C@@H]1O)c1ccc(F)cc1
- IC50 (Zika virus [1]): > 50 µM

SMILES: CCN1CCN(C[C@H]2O[C@@H](n3cnc4c(NCc5cccc(Cl)c5)ncnc43)[C@H](O)[C@@H]2O)CC1
- IC50 (Zika virus [1]): > 50 µM

SMILES: O[C@@H]1[C@H](O)[C@@H](CNCc2ccc(OC(F)(F)F)cc2)O[C@H]1n1cnc2c(NCc3cccc(Cl)c3)ncnc21
- IC50 (Zika virus [1]): 2.04 µM

SMILES: CC(C)NC[C@H]1O[C@@H](n2cnc3c(NCc4cccc(Cl)c4)ncnc32)[C@H](O)[C@@H]1O
- IC50 (Zika virus [1]): 6.36 µM

SMILES: CCNC[C@H]1O[C@@H](n2cnc3c(NCc4cccc(Cl)c4)ncnc32)[C@H](O)[C@@H]1O
- IC50 (Zika virus [1]): 14.7 µM

SMILES: COc1ccc(CNC[C@H]2O[C@@H](n3cnc4c(NCc5cccc(Cl)c5)ncnc43)[C@H](O)[C@@H]2O)cc1
- IC50 (Zika virus [1]): 5.01 µM

SMILES: O[C@@H]1[C@H](O)[C@@H](CNCc2ccc(C(F)(F)F)cc2)O[C@H]1n1cnc2c(NCC3CCCCC3)ncnc21
- IC50 (Zika virus [1]): > 50 µM

SMILES: Nc1ncnc2c1ncn2[C@@H]1O[C@H](CNCc2ccc(C(F)(F)F)cc2)[C@@H](O)[C@H]1O
- IC50 (Zika virus [1]): > 50 µM

SMILES: O[C@@H]1[C@H](O)[C@@H](CNCc2ccc(Cl)cc2)O[C@H]1n1cnc2c(NCc3cccc(Cl)c3)ncnc21
- IC50 (Zika virus [1]): 2.7 µM

SMILES: O[C@@H]1[C@H](O)[C@@H](CNC2CCCC2)O[C@H]1n1cnc2c(NCc3cccc(Cl)c3)ncnc21
- IC50 (Zika virus [1]): 8.49 µM

SMILES: O[C@@H]1[C@H](O)[C@@H](CNCc2ccc(C(F)(F)F)cc2)O[C@H]1n1cnc2c(NCc3cccc(C(F)(F)F)c3)ncnc21
- IC50 (Zika virus [1]): > 50 µM

SMILES: O[C@@H]1[C@H](O)[C@@H](CN2CCOCC2)O[C@H]1n1cnc2c(NCc3cccc(Cl)c3)ncnc21
- IC50 (Zika virus [1]): > 50 µM

SMILES: Nc1ncnc2c1ncn2[C@@H]1O[C@H](C[C@@H](N)CC[C@H](N)C(=O)O)[C@@H](O)[C@H]1O
- inhibition (Zika virus [2]): 67.5%

SMILES: O[C@@H]1[C@H](O)[C@@H](CNCc2ccc(C(F)(F)F)cc2)O[C@H]1n1cnc2c(NCc3ccco3)ncnc21
- IC50 (Zika virus [1]): 13.2 µM

SMILES: CC1CCCN(C[C@H]2O[C@@H](n3cnc4c(NCc5cccc(Cl)c5)ncnc43)[C@H](O)[C@@H]2O)C1 (some centres undefined)
- half-life [3]: 3.56 h
- IC50 (Zika virus [1]): 1.4 µM
- Tmax [4]: 0.5 h
- Cmax [5]: 837 ng/mL
- AUC(0-t) at 24 h [6]: 2910 ng·h/mL
- MRT [7]: 3.95 h
- Activity [8]: Non-Toxic
- Activity [9]: Non-Toxic
- LD50 at 336 h [10]: > 200 mg/kg

SMILES: C#C[C@@]1(O)[C@H](O)[C@@H](CO)O[C@H]1n1ccc2c(N)ncnc21
- IC50 (Zika virus [1]): 0.85 µM
- Activity (Zika virus [11]): Active
- Activity (Zika virus [12]): Active

SMILES: C[C@@]1(O)[C@H](O)[C@@H](CO)O[C@H]1n1cnc2c(N)ncnc21
- IC50 (Zika virus [13]): 1.76 µM

SMILES: CCN(CC)C[C@H]1O[C@@H](n2cnc3c(NCc4cccc(Cl)c4)ncnc32)[C@H](O)[C@@H]1O
- IC50 (Zika virus [1]): 8.43 µM

SMILES: O[C@@H]1[C@H](O)[C@@H](CNCc2cccs2)O[C@H]1n1cnc2c(NCc3cccc(Cl)c3)ncnc21
- IC50 (Zika virus [1]): 6.06 µM

SMILES: O[C@@H]1[C@H](O)[C@@H](CNCc2cccc3ccccc23)O[C@H]1n1cnc2c(NCc3cccc(Cl)c3)ncnc21
- IC50 (Zika virus [1]): 3.58 µM

SMILES: O[C@@H]1[C@H](O)[C@@H](CN2CCC3(CCNCC3)CC2)O[C@H]1n1cnc2c(NCc3cccc(Cl)c3)ncnc21
- IC50 (Zika virus [1]): > 50 µM

SMILES: CC1CCN(C[C@H]2O[C@@H](n3cnc4c(NCc5cccc(Cl)c5)ncnc43)[C@H](O)[C@@H]2O)CC1
- IC50 (Zika virus [1]): 6.58 µM

SMILES: O=[N+]([O-])c1ccc(CNC[C@H]2O[C@@H](n3cnc4c(NCc5cccc(Cl)c5)ncnc43)[C@H](O)[C@@H]2O)cc1
- IC50 (Zika virus [1]): 7.52 µM

SMILES: N#Cc1cccc(CNc2ncnc3c2ncn3[C@@H]2O[C@H](CNCc3ccc(C(F)(F)F)cc3)[C@@H](O)[C@H]2O)c1
- IC50 (Zika virus [1]): > 50 µM

SMILES: O[C@@H]1[C@H](O)[C@@H](CNCc2ccncc2)O[C@H]1n1cnc2c(NCc3cccc(Cl)c3)ncnc21
- IC50 (Zika virus [1]): > 50 µM

SMILES: O[C@@H]1[C@H](O)[C@@H](CNCc2ccc(C(F)(F)F)cc2)O[C@H]1n1cnc2c(NCc3ccccc3Cl)ncnc21
- IC50 (Zika virus [1]): > 50 µM

SMILES: CN(Cc1ccc(F)cc1)C[C@H]1O[C@@H](n2cnc3c(NCc4cccc(Cl)c4)ncnc32)[C@H](O)[C@@H]1O
- IC50 (Zika virus [1]): 5.76 µM

SMILES: O[C@@H]1[C@H](O)[C@@H](CN2CCCC2)O[C@H]1n1cnc2c(NCc3cccc(Cl)c3)ncnc21
- IC50 (Zika virus [1]): 17.5 µM

SMILES: O[C@@H]1[C@H](O)[C@@H](CNCc2ccc(F)cc2)O[C@H]1n1cnc2c(NCc3cccc(Cl)c3)ncnc21
- IC50 (Zika virus [1]): 3.35 µM

SMILES: Oc1ccc(CNC[C@H]2O[C@@H](n3cnc4c(NCc5cccc(Cl)c5)ncnc43)[C@H](O)[C@@H]2O)cc1
- IC50 (Zika virus [1]): 25.8 µM

SMILES: O[C@@H]1[C@H](O)[C@@H](CNCc2ccc(Br)cc2)O[C@H]1n1cnc2c(NCc3cccc(Cl)c3)ncnc21
- IC50 (Zika virus [1]): 2.2 µM

SMILES: CCOC(=O)C1CCN(C[C@H]2O[C@@H](n3cnc4c(NCc5cccc(Cl)c5)ncnc43)[C@H](O)[C@@H]2O)CC1
- IC50 (Zika virus [1]): 26.8 µM

SMILES: O[C@@H]1[C@H](O)[C@@H](CNCc2ccc3ccccc3c2)O[C@H]1n1cnc2c(NCc3cccc(Cl)c3)ncnc21
- IC50 (Zika virus [1]): 1.45 µM

SMILES: O[C@@H]1[C@H](O)[C@@H](CNCc2ccc(C(F)(F)F)cc2)O[C@H]1n1cnc2c(NCc3cccc(F)c3)ncnc21
- IC50 (Zika virus [1]): 4.18 µM

SMILES: OC1CCN(C[C@H]2O[C@@H](n3cnc4c(NCc5cccc(Cl)c5)ncnc43)[C@H](O)[C@@H]2O)CC1
- IC50 (Zika virus [1]): > 50 µM

SMILES: O[C@@H]1[C@H](O)[C@@H](CN2CCCCC2)O[C@H]1n1cnc2c(NCc3cccc(Cl)c3)ncnc21
- IC50 (Zika virus [1]): > 50 µM

SMILES: O[C@@H]1[C@H](O)[C@@H](CNC2CCC2)O[C@H]1n1cnc2c(NCc3cccc(Cl)c3)ncnc21
- IC50 (Zika virus [1]): 7.28 µM

SMILES: O[C@@H]1[C@H](O)[C@@H](CNCc2cccc(F)c2)O[C@H]1n1cnc2c(NCc3cccc(Cl)c3)ncnc21
- IC50 (Zika virus [1]): 5.76 µM
